Structures are written as SMILES. Where two headings read alike, the source gives them in different places.

In general, Emax refers to the maximal effect, on the per cent scale that the assay sets.

What all share (assay type): cell-based
The target of assay [1] is T1, human muscarinic M1 receptor (Homo sapiens, UniProt P11229).
T1 sequence (P11229 1-460): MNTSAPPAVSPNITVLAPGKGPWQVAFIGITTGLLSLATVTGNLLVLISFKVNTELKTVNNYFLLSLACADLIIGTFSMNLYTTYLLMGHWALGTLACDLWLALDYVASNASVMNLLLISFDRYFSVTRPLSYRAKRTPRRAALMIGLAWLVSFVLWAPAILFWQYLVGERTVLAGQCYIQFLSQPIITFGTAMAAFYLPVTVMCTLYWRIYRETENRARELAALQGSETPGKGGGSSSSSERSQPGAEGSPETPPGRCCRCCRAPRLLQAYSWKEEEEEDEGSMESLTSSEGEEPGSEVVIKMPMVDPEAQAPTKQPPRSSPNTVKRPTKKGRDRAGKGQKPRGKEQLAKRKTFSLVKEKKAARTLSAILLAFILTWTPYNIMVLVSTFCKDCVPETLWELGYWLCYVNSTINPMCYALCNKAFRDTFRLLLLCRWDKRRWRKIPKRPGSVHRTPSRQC
As to the kind of experiment: Alphascreen Surefire phospho-ERK1/2 functional assay, M1. The following applies: phospho-ERK1/2; for EC50: read-out: pEC50 M1 (converted); for Emax: CHO, read-out: % Emax cf. ACh (M1), CHO cells stably expressing human M1. In outline: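 CHO cells stably expressing human M1, M2 or M3 receptor, serum-starved overnight, were stimulated with agonist for 5 min at 37 °C. Cells were then lysed and ERK1/2 phosphorylation detected by AlphaScreen SureFire.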
On the technique in general: Bead proximity is the source of the signal in Alpha formats.

Assay [2] has as its target T2, human muscarinic M2 receptor (Homo sapiens, UniProt P08172).
T2 sequence (P08172 1-466): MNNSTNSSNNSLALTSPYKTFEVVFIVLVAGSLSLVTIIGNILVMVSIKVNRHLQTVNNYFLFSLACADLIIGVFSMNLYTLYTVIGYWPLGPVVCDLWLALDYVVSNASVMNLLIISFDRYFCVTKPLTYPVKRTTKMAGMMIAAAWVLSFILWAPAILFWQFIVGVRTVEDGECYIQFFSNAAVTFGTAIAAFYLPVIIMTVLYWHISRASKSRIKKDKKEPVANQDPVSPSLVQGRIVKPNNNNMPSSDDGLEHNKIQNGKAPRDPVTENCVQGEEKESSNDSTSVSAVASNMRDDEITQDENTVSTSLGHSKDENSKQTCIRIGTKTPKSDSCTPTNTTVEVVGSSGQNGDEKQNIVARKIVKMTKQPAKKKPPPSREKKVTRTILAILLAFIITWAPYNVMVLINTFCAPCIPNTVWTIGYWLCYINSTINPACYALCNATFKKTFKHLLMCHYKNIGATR
The assay is described as follows: Alphascreen Surefire phospho-ERK1/2 functional assay, M2. The following applies: for EC50: CHO cells stably expressing human M2, read-out: pEC50 M2 (converted); for Emax: CHO, read-out: % Emax cf. ACh (M2), CHO cells stably expressing human M2, relative to ACh. Here is the method:
(§1) ERK1/2 phosphorylation is a downstream consequence of both Gq/11 and Gi/o protein coupled receptor activation, making it highly suitable for the assessment of M1, M3 (Gq/11 coupled) and M2, M4 receptors (Gi/o coupled), rather than using different assay formats for different receptor subtypes. CHO cells stably expressing the human muscarinic M1, M2, M3 or M4 receptor were plated (25K/well) onto 96-well tissue culture plates in MEM-alpha+10% dialysed FBS. Once adhered, cells were serum-starved overnight. Agonist stimulation was performed by the addition of 5 μL agonist to the cells for 5 min (37° C.). Media was removed and 50 μL of lysis buffer added. After 15 min, a 4 μL sample was transferred to 384-well plate and 7 μL of detection mixture added.

For assay [3], the target named is T3, human muscarinic M3 receptor (Homo sapiens, UniProt P20309).
T3 construct: expressed in transfected cells
As to the kind of experiment: Alphascreen Surefire phospho-ERK1/2 functional assay, M3. The settings on record: phospho-ERK1/2; for EC50: CHO cells stably expressing human M3, read-out: pEC50 M3 (converted); for Emax: CHO, read-out: % Emax cf. ACh (M3), CHO cells stably expressing human M3, relative to ACh. Here is the method: as §1

Assay [4] has as its target T4, human muscarinic M4 receptor (Homo sapiens, UniProt P08173).
T4 construct: expressed in transfected cells
T4 sequence (P08173 1-479): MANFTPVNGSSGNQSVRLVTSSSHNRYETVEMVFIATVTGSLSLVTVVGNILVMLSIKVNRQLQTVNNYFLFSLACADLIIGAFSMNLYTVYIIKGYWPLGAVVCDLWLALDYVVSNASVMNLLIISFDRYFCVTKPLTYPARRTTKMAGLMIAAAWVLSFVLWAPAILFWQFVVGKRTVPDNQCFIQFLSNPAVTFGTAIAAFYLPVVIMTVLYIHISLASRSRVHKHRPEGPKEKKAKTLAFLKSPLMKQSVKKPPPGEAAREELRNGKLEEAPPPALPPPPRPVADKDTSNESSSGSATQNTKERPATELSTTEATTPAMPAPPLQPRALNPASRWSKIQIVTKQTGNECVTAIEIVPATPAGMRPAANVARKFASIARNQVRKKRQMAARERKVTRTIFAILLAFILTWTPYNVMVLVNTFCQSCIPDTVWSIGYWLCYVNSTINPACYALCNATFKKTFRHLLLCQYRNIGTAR
As to the kind of experiment: Alphascreen Surefire phospho-ERK1/2 functional assay, M4. The settings on record: for Emax: CHO, read-out: % Emax cf. ACh (M4), CHO cells stably expressing human M4, relative to ACh.

Where [5] appears, read: CHO cells stably expressing human M1.
[6] abbreviates: CHO cells stably expressing human M4, phospho-ERK1/2, read-out: pEC50 M4 (converted).

T3 sequence (P20309 whole entry): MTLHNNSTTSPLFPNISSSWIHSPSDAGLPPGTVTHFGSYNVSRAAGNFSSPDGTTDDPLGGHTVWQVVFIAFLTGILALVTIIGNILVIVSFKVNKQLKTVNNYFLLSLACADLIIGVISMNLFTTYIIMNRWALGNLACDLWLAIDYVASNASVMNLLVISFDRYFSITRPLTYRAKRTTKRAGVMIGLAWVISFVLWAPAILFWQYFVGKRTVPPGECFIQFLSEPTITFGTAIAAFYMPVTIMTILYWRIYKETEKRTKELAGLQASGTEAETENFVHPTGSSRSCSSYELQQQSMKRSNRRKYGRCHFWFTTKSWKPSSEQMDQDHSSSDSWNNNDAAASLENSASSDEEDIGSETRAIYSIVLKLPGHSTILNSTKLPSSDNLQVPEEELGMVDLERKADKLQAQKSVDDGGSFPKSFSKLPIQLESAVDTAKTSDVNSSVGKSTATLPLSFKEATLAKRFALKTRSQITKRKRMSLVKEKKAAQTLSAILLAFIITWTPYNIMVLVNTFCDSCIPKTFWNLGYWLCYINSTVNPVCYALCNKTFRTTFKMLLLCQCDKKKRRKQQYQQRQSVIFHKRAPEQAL

As for `CCOC(=O)N1CCC2(CC(N3CCC(N(Cc4ccccc4)C(C)=O)CC3)C2)C1` (single isomer, unassigned) [2-35 Isomer 2], the EC50 in assay [1] (setting [5]) is 39.8 nM; in assay [2], greater than 20000 nM; in assay [3], greater than 20000 nM; in assay [4] (setting [6]), 126 nM. Moreover, the Emax was 85% in assay [1] (relative to ACh), 21% in assay [2], 34% in assay [3] and 72% in assay [4] (phospho-ERK1/2).
On to `CCOC(=O)N1CCC2(CC(N3CCC(N(CC)CC(F)(F)F)CC3)C2)C1` (single isomer, unassigned) [2-7 Isomer 2], for which the EC50 in assay [1] (setting [5]) is 79.4 nM; in assay [2] it was greater than 20000 nM; in assay [3], greater than 20000 nM; in assay [4] (setting [6]), 12.6 nM. Further, the maximal effect (Emax) turned out to be 120% in assay [1] (relative to ACh), 16% in assay [2], 10% in assay [3] and 118% in assay [4] (phospho-ERK1/2).
Consider `CCOC(=O)N1CCC2(CC(N3CCC(N(OC)C(C)=O)CC3)C2)C1` (single isomer, unassigned) [2-32 Isomer 2], for which the EC50 in assay [1] (setting [5]) is 2510 nM; in assay [2], greater than 20000 nM; in assay [3] it was greater than 20000 nM; in assay [4] (setting [6]), 39.8 nM. Moreover, the Emax in assay [1] (relative to ACh) is 82%; in assay [2], 9%; in assay [3], 5%; in assay [4] (phospho-ERK1/2) it was 115%.
On to `CCOC(=O)N1CCC2(CC(N3CCC(N(Cc4ccon4)C4CC4)CC3)C2)C1` (single isomer, unassigned) [2-10 Isomer 2], for which the EC50 in assay [1] (setting [5]) is 794 nM; in assay [2], greater than 20000 nM; in assay [3], greater than 20000 nM; in assay [4] (setting [6]), 31.6 nM. The Emax in assay [1] (relative to ACh) turned out to be 42%; in assay [2] it was 11%; in assay [3], 7%; in assay [4] (phospho-ERK1/2), 122%.
In the case of `CCOC(=O)N1CCC2(CC(N3CCC(N(CCF)Cc4cnco4)CC3)C2)C1` (single isomer, unassigned) [2-61 Isomer 2], the EC50 in assay [1] (setting [5]) was greater than 20000 nM; in assay [2] it was greater than 20000 nM; in assay [3], greater than 20000 nM; in assay [4] (pEC50 M4) it was 39.8 nM. Moreover, the Emax in assay [1] (relative to ACh) was determined as 21%; in assay [2] it was 52%; in assay [3], 65%; in assay [4] (phospho-ERK1/2) it was 101%.
With `CCOC(=O)N1CCC2(CC(N3CCC(SCc4ccccc4)CC3)C2)C1` (single isomer, unassigned) [2-67 Isomer 2], the EC50 in assay [1] (setting [5]) is greater than 20000 nM; in assay [2] it was greater than 20000 nM; in assay [3], greater than 20000 nM; in assay [4] (setting [6]), 31.6 nM. The Emax in assay [1] (relative to ACh) turned out to be 19%; in assay [2], 2%; in assay [3], 2%; in assay [4] (phospho-ERK1/2), 55%.
In the case of `CCOC(=O)N1CCC2(CC(N3CCC(N(CC(F)F)C(C)=O)CC3)C2)C1` (single isomer, unassigned) [2-24 Isomer 2], the EC50 in assay [1] (setting [5]) is 398 nM; in assay [2] it was greater than 20000 nM; in assay [3] it was greater than 20000 nM; in assay [4] (setting [6]), 10 nM. Also, the Emax came out at 91% in assay [1] (relative to ACh), 5% in assay [2], 17% in assay [3] and 124% in assay [4] (phospho-ERK1/2).
On to `CCOC(=O)N1CCC2(CC(N3CCC(N(Cc4ccccc4)CC(F)(F)F)CC3)C2)C1` (single isomer, unassigned) [2-59 Isomer 2], for which the EC50 in assay [1] (setting [5]) was greater than 20000 nM; in assay [2], greater than 20000 nM; in assay [3], greater than 20000 nM; in assay [4] (setting [6]), 79.4 nM. The Emax in assay [1] (relative to ACh) was 9%; in assay [2], 9%; in assay [3] it was 14%; in assay [4] (phospho-ERK1/2), 52%.
With `CCOC(=O)N1CCC2(CC(N3CCC(N(CC4(C)CCC4)C(C)=O)CC3)C2)C1` (single isomer, unassigned) [Example 2-21 Isomer 2], the EC50 was 63.1 nM in assay [1] (setting [5]), greater than 20000 nM in assay [2], greater than 20000 nM in assay [3] and 158 nM in assay [4] (setting [6]). Also, in assay [1] (CHO cells stably expressing human M1, relative to ACh, listed as 2-21 isomer 2), the “% Emax cf. ACh (M1)” value was 89%. The Emax in assay [2] amounted to 18%; in assay [3], 22%.
For the compound `CCOC(=O)N1CCC2(CC(N3CCC(C(C)(C)N(CC)C(C)=O)CC3)C2)C1` (single isomer, unassigned) [2-64 Isomer 2], the EC50 was 2510 nM in assay [1] (setting [5]), greater than 20000 nM in assay [2], greater than 20000 nM in assay [3] and 31.6 nM in assay [4] (setting [6]). Besides, the Emax in assay [1] (relative to ACh) stood at 46%; in assay [2], 2%; in assay [3], 4%; in assay [4] (phospho-ERK1/2), 128%.
As for `CCOC(=O)N1CCC2(CC(N3CCC(N(CC)CC(F)F)CC3)C2)C1` (single isomer, unassigned) [2-46 Isomer 2], the EC50 in assay [1] (setting [5]) was 316 nM; in assay [2], greater than 20000 nM; in assay [3], greater than 20000 nM; in assay [4] (pEC50 M4), 7.94 nM. For the same compound, the maximal response (Emax) in assay [1] (relative to ACh) was 63%; in assay [2], 5%; in assay [3], 12%; in assay [4] (phospho-ERK1/2), 98%.
On to `CCOC(=O)N1CCC2(CC(N3CCC(N(C(=O)OC)C(C)C)CC3)C2)C1` (single isomer, unassigned) [2-41 Isomer 2], for which the EC50 in assay [1] (setting [5]) was 316 nM; in assay [2] it was greater than 20000 nM; in assay [3] it was greater than 20000 nM; in assay [4] (setting [6]), 15.8 nM. Besides, the Emax in assay [1] (relative to ACh) worked out at 109%; in assay [2] it was 57%; in assay [3] it was 1%; in assay [4] (phospho-ERK1/2), 127%.
For the compound `CCOC(=O)N1CCC2(CC(N3CCC(N(CC(F)(F)F)C4CC4)CC3)C2)C1` (single isomer, unassigned) [2-48 Isomer 2], the EC50 in assay [1] (setting [5]) was 39.8 nM; in assay [2], 12600 nM; in assay [3] it was 7940 nM; in assay [4] (setting [6]), 39.8 nM. Moreover, the Emax in assay [1] (relative to ACh) was 117%; in assay [2] it was 68%; in assay [3] it was 53%; in assay [4] (phospho-ERK1/2), 75%.
For `CCOC(=O)N1CCC2(CC(N3CCC(N(CC)C(=O)OCC)CC3)C2)C1` (single isomer, unassigned) [2-40 Isomer 2], the EC50 in assay [1] (setting [5]) was 501 nM; in assay [2], greater than 20000 nM; in assay [3] it was greater than 20000 nM; in assay [4] (setting [6]), 63.1 nM. For the same compound, the Emax worked out at 39% in assay [1] (relative to ACh), 32% in assay [2], 9% in assay [3] and 110% in assay [4] (phospho-ERK1/2).

The values above are taken from patent US10167272B2, “Muscarinic agonists” (Heptares Therapeutics Limited, priority 2015, dated 2019).
